Experimental data from patent US9328106B2, “Cyclic ether pyrazol-4-yl-heterocyclyl-carboxamide compounds and methods of use” (Genentech, Inc., priority 2012, dated 2016).

Target: PIM1 (Homo sapiens (Human), UniProt P11309)
Experiment: biochemical
Type: biochemical
Conditions: 20 pM PIM1, 1 μM FAM-peptide, 10 μM ATP, 90 minutes at room temperature; read-out: PIM1 LC3K (KI)

PIM1, sequence (P11309 whole entry): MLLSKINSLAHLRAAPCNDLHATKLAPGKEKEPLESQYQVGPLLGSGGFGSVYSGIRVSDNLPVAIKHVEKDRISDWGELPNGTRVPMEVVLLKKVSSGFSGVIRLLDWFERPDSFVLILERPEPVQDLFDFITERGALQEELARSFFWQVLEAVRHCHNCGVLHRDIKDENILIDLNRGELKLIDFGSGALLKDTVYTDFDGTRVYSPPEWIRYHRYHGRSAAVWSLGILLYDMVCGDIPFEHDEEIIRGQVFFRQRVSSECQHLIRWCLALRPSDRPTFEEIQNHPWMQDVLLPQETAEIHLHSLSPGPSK

Row | SMILES | Ki [pM]
1 | COc1cccc(-c2nc(C(=O)Nc3cnn(C)c3[C@@H]3CC[C@@H](N)[C@H](F)CO3)cs2)c1 [Example 357, N-(5-((2S,5R,6S)-5-amino-6-fluorooxepan-2-yl)-1-methyl-1H-pyrazol-4-yl)-2-(3-methoxyphenyl)thiazole-4-carboxamide] | 35
2 | Cn1ncc(NC(=O)c2nc(-c3c(F)cccc3F)sc2N)c1C1C[C@H](N)[C@@H](F)CCO1 (stereo partly drawn) [Example 130, 5-amino-N-(5-((4S,5S)-4-amino-5-fluorooxepan-2-yl)-1-methyl-1H-pyrazol-4-yl)-2-(2,6-difluorophenyl)thiazole-4-carboxamide] | 358
3 | CC(C)n1cc(-c2nc(C(=O)Nc3cnn(C)c3[C@@H]3CC[C@@H](N)[C@@H](F)CO3)c(N)s2)cn1 [Example 256, 5-amino-N-(5-((2S,5R,6R)-5-amino-6-fluorooxepan-2-yl)-1-methyl-1H-pyrazol-4-yl)-2-(1-isopropyl-1H-pyrazol-4-yl)thiazole-4-carboxamide] | 93
4 | Cn1ncc(NC(=O)c2csc(-c3c(F)cc(C4(O)CC4)cc3F)n2)c1[C@@H]1CC[C@@H](N)[C@H](F)CO1 [Example 225, N-(5-((2S,5R,6S)-5-amino-6-fluorooxepan-2-yl)-1-methyl-1H-pyrazol-4-yl)-2-(2,6-difluoro-4-(1-hydroxycyclopropyl)phenyl)thiazole-4-carboxamide] | 28
5 | Cn1ncc(NC(=O)c2ccc(F)c(-c3c(F)cccc3F)n2)c1[C@@H]1CC[C@@H](N)[C@H](F)CO1 [Example 195, N-(5-((2S,5R,6S)-5-amino-6-fluorooxepan-2-yl)-1-methyl-1H-pyrazol-4-yl)-6-(2,6-difluorophenyl)-5-fluoropicolinamide] | 25
6 | CO[C@H]1CCC(c2c(NC(=O)c3nc(-c4c(F)cccc4F)sc3N)cnn2C)OC[C@@H]1N (stereo partly drawn) [Example 123, 5-amino-N-(5-((5S,6S)-6-amino-5-methoxyoxepan-2-yl)-1-methyl-1H-pyrazol-4-yl)-2-(2,6-difluorophenyl)thiazole-4-carboxamide] | 125
7 | Cc1ccc(F)c(-c2nc(C(=O)Nc3cnn(C)c3[C@@H]3CC[C@@H](N)[C@H](F)CO3)cs2)c1 [Example 238, N-(5-((2S,5R,6S)-5-amino-6-fluorooxepan-2-yl)-1-methyl-1H-pyrazol-4-yl)-2-(2-fluoro-5-methylphenyl)thiazole-4-carboxamide] | 48
8 | C[C@H]1O[C@@H](c2c(NC(=O)c3nc(-c4c(F)cccc4F)sc3N)cnn2C)CC(F)(F)[C@@]1(C)N (stereo in doubt) [Example 179, 5-Amino-N-[5-[5-amino-4,4-difluoro-5,6-dimethyl-tetrahydropyran-2-yl]-1-methyl-pyrazol-4-yl]-2-(2,6-difluorophenyl)thiazole-4-carboxamide] | 456
9 | Cn1ncc(NC(=O)c2nc(-c3c(F)cccc3F)sc2N)c1C1CCC(N)COC1 (stereo not shown) [Example 147, 5-amino-N-[5-(6-aminooxepan-3-yl)-1-methyl-pyrazol-4-yl]-2-(2,6-difluorophenyl)thiazole-4-carboxamide] | 141
10 | Cn1ncc(NC(=O)c2csc(-c3cncc(F)c3)n2)c1[C@@H]1CC[C@@H](N)[C@H](F)CO1 [Example 239, N-(5-((2S,5R,6S)-5-amino-6-fluorooxepan-2-yl)-1-methyl-1H-pyrazol-4-yl)-2-(5-fluoropyridin-3-yl)thiazole-4-carboxamide] | 2660
11 | Cn1ncc(NC(=O)c2csc(-c3c(F)cc(C4(O)CCC4)cc3F)n2)c1[C@@H]1CC[C@@H](N)[C@H](F)CO1 [Example 295, N-(5-((2S,5R,6S)-5-amino-6-fluorooxepan-2-yl)-1-methyl-1H-pyrazol-4-yl)-2-(2,6-difluoro-4-(1-hydroxycyclobutyl)phenyl)thiazole-4-carboxamide] | 27
12 | Cn1ncc(NC(=O)c2nc(C3CCCC3)sc2N)c1[C@@H]1CC[C@@H](N)[C@H](F)CO1 [Example 334, 5-amino-N-(5-((2S,5R,6S)-5-amino-6-fluorooxepan-2-yl)-1-methyl-1H-pyrazol-4-yl)-2-cyclopentylthiazole-4-carboxamide] | 453
13 | Cn1ncc(NC(=O)c2csc(-c3cnn(C4CC4)c3)n2)c1[C@@H]1CC[C@@H](N)[C@H](F)CO1 [Example 235, N-(5-((2S,5R,6S)-5-amino-6-fluorooxepan-2-yl)-1-methyl-1H-pyrazol-4-yl)-2-(1-cyclopropyl-1H-pyrazol-4-yl)thiazole-4-carboxamide] | 68
14 | Cn1ncc(NC(=O)c2csc(-c3cc(Br)ccc3F)n2)c1[C@@H]1CC[C@@H](N)[C@H](F)CO1 [Example 299, N-(5-((2S,5R,6S)-5-amino-6-fluorooxepan-2-yl)-1-methyl-1H-pyrazol-4-yl)-2-(5-bromo-2-fluorophenyl)thiazole-4-carboxamide] | 23
15 | CC[C@@H]1C[C@H](N)CC[C@H](c2c(NC(=O)c3nc(-c4c(F)cccc4F)sc3N)cnn2C)O1 [Example 125, 5-amino-N-(5-((2R,7R)-5-amino-7-ethyloxepan-2-yl)-1-methyl-1H-pyrazol-4-yl)-2-(2,6-difluorophenyl)thiazole-4-carboxamide] | 3500
16 | Cn1ncc(NC(=O)c2nc(-c3c(F)cccc3F)sc2N)c1[C@H]1C[C@@H](N)CCO1 (stereo in doubt) [Example 158, 5-Amino-N-[5-[4-aminotetrahydropyran-2-yl]-1-methyl-pyrazol-4-yl]-2-(2,6-difluorophenyl)thiazole-4-carboxamide] | 32
17 | Cn1ncc(NC(=O)c2nc(C3=CCCC3)sc2N)c1[C@@H]1CC[C@@H](N)[C@@H](F)CO1 [Example 271, 5-amino-N-(5-((2S,5R,6R)-5-amino-6-fluorooxepan-2-yl)-1-methyl-1H-pyrazol-4-yl)-2-(cyclopent-1-en-1-yl)thiazole-4-carboxamide] | 62
18 | Cn1ncc(NC(=O)c2nc(C3CCCC3)sc2N)c1[C@@H]1CC[C@@H](N)[C@@H](F)CO1 [Example 272, 5-amino-N-(5-((2S,5R,6R)-5-amino-6-fluorooxepan-2-yl)-1-methyl-1H-pyrazol-4-yl)-2-cyclopentylthiazole-4-carboxamide] | 992
19 | Cn1ncc(NC(=O)c2csc(-c3cccc(F)c3Cl)n2)c1[C@@H]1CC[C@@H](N)[C@H](F)CO1 [Example 309, N-(5-((2S,5R,6S)-5-amino-6-fluorooxepan-2-yl)-1-methyl-1H-pyrazol-4-yl)-2-(2-chloro-3-fluorophenyl)thiazole-4-carboxamide] | 274
20 | Cn1ncc(NC(=O)c2nc(-c3c(F)cccc3F)sc2N)c1C1CCC(N)COC1 (stereo not shown) [Example 144, 5-amino-N-[5-(6-aminooxepan-3-yl)-1-methyl-pyrazol-4-yl]-2-(2,6-difluorophenyl)thiazole-4-carboxamide] | 1450
21 | COc1ncccc1-c1nc(C(=O)Nc2cnn(C)c2[C@@H]2CC[C@@H](N)[C@H](F)CO2)cs1 [Example 232, N-(5-((2S,5R,6S)-5-amino-6-fluorooxepan-2-yl)-1-methyl-1H-pyrazol-4-yl)-2-(2-methoxypyridin-3-yl)thiazole-4-carboxamide] | 1110

Now those with a lower Ki, led by results:

Row | Ki [pM] | SMILES
22 | 20 | CO[C@H]1CO[C@H](c2c(NC(=O)c3nc(-c4cc(C)ccc4F)sc3N)cnn2C)CC[C@H]1N [Example 264, 5-amino-N-(5-((2S,5R,6R)-5-amino-6-methoxyoxepan-2-yl)-1-methyl-1H-pyrazol-4-yl)-2-(2-fluoro-5-methylphenyl)thiazole-4-carboxamide]
23 | 15 | CC[C@]1(CN)CO[C@H](c2c(NC(=O)c3nc(-c4c(F)cccc4F)sc3N)cnn2C)OC1 [Example 173, 5-Amino-N-[5-[5-(aminomethyl)-5-ethyl-1,3-dioxan-2-yl]-1-methyl-pyrazol-4-yl]-2-(2,6-difluorophenyl)thiazole-4-carboxamide]
24 | 2.24 | Cn1ncc(NC(=O)c2csc(-c3c(F)cc(O[C@H]4CCOC4)cc3F)n2)c1[C@@H]1CC[C@@H](N)[C@H](F)CO1 [Example 218]
25 | 18 | Cn1ncc(NC(=O)c2nc(-c3cc(Cl)ccc3F)sc2N)c1[C@@H]1CC[C@@H](N)[C@H](F)CO1 [Example 291, 5-amino-N-(5-((2S,5R,6S)-5-amino-6-fluorooxepan-2-yl)-1-methyl-1H-pyrazol-4-yl)-2-(5-chloro-2-fluorophenyl)thiazole-4-carboxamide]
26 | 1 | COc1ccc(F)c(-c2nc(C(=O)Nc3cnn(C)c3[C@@H]3CC[C@@H](N)[C@H](F)CO3)cs2)c1F [Example 229, N-(5-((2S,5R,6S)-5-amino-6-fluorooxepan-2-yl)-1-methyl-1H-pyrazol-4-yl)-2-(2,6-difluoro-3-methoxyphenyl)thiazole-4-carboxamide]
27 | 14 | Cn1ncc(NC(=O)c2nc(-c3c(F)cccc3F)sc2N)c1C1CC(F)(F)CC(N)CO1 (stereo not shown) [Example 132, 5-amino-N-[5-(6-amino-4,4-difluoro-oxepan-2-yl)-1-methyl-pyrazol-4-yl]-2-(2,6-difluorophenyl)thiazole-4-carboxamide]
28 | 13 | Cn1ncc(NC(=O)c2nc(-c3ccncc3F)sc2N)c1[C@@]12CC[C@@H](N)[C@@H](CC1)O2 (stereo in doubt) [Example 161, 5-Amino-N-[5-[2-amino-8-oxabicyclo[3.2.1]octan-5-yl]-1-methyl-pyrazol-4-yl]-2-(3-fluoro-4-pyridyl)thiazole-4-carboxamide]
29 | 21 | Cn1ncc(NC(=O)c2nc(-c3c(F)cccc3F)sc2N)c1C1CC[C@@H](N)[C@@H](F)CO1 (stereo partly drawn) [Example 119, 5-amino-N-(5-((5R,6R)-5-amino-6-fluorooxepan-2-yl)-1-methyl-1H-pyrazol-4-yl)-2-(2,6-difluorophenyl)thiazole-4-carboxamide]
30 | 4 | Cn1ncc(NC(=O)c2nc(-c3c(F)ccc(F)c3F)sc2N)c1[C@@H]1CC[C@@H](N)[C@@H](F)CO1 [Example 260, 5-amino-N-(5-((2S,5R,6R)-5-amino-6-fluorooxepan-2-yl)-1-methyl-1H-pyrazol-4-yl)-2-(2,3,6-trifluorophenyl)thiazole-4-carboxamide]
31 | 12 | Cn1ncc(NC(=O)c2ccc(F)c(-c3c(F)cc(O)cc3F)n2)c1[C@@H]1CC[C@@H](N)[C@H](F)CO1 [Example 208, N-(5-((2S,5R,6S)-5-amino-6-fluorooxepan-2-yl)-1-methyl-1H-pyrazol-4-yl)-6-(2,6-difluoro-4-hydroxyphenyl)-5-fluoropicolinamide]
